Values quoted from earlier work, collected in patent US20160330969A1, “ANTIMICROBIAL COMPOSITIONS AND ARTICLES” (priority 2013, published 2016).

Conditions: decomposition to chlorite and chlorate species, pH 5-8 region

SMILES: OCl [HOCl, hypochlorous acid]
- pH of maximum rate of decomposition: 6.89
